# Reference: patent US20240287080A1 (IDEAYA Biosciences Inc., priority 2021, published 2024)
# Molecular target: T1, Pol theta (1-899) (Homo sapiens, UniProt O75417)
# T1 construct: Pol theta (1-899) (5 nM) in assay buffer
# Experiment: Pol theta ATPase activity, NADH oxidation-coupled enzymatic assay (ATPase NADH coupling: Standard Screening: hPolQ)
# Assay type: biochemical
# Details: Pol theta (1-899) 5 nM, NADH oxidation-coupled ATPase assay; compounds of Table 3
# Summary of the method: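 Rates of ATP hydrolysis taken from 60-min A340 traces of NADH oxidation via PK/LDH coupling, then fit four-parameter for IC50, Hill slope and max inhibition. Enzyme (5 nM, 1-899) and compounds preincubated 15 min before ATP 100 μM and 50-thymine ssDNA 300 nM (stock, equal volume added).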
# T1 sequence (O75417 1-899): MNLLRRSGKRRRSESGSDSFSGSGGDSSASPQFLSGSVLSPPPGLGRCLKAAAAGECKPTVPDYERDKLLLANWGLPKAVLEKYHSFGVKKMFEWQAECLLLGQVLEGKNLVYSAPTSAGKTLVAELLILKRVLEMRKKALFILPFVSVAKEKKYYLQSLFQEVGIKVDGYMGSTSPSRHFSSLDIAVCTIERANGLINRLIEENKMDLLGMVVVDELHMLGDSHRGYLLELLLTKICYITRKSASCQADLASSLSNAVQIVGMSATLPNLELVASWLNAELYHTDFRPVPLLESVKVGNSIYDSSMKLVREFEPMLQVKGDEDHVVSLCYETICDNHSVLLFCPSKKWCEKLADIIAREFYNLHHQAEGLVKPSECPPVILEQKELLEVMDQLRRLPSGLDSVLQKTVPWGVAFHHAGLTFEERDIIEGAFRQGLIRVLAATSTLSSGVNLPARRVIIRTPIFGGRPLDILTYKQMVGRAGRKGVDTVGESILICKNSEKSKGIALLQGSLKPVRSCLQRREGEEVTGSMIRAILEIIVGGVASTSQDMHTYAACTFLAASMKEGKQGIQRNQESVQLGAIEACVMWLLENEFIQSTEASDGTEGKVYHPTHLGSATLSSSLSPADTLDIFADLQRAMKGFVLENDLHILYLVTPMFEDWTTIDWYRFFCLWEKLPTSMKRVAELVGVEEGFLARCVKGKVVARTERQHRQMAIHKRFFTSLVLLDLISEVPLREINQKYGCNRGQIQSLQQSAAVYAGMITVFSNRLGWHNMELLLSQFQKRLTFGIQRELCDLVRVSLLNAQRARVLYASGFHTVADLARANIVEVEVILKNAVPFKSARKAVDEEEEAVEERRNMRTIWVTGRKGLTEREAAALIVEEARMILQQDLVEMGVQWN
row,Compound,IC50 [nM]
1,"COc1nnc(NC(=O)c2cnc(C)cc2-c2ccc(F)c(F)c2C)s1 [Example 475, 4-(3,4-difluoro-2-methylphenyl)-N-(5-methoxy-1,3,4-thiadiazol-2-yl)-6-methylpyridine-3-carboxamide]",500 to 1000
2,"COc1nnc(NC(=O)c2cnc(C)cc2-c2ccc(S(C)(=O)=O)cc2)s1 [Example 371, N-(5-methoxy-1,3,4-thiadiazol-2-yl)-6-methyl-4-(4-(methylsulfonyl)phenyl)nicotinamide]",1000 to 10000
3,"COc1nnc(NC(=O)c2cnc(C)cc2-c2cc(C)nn2C)s1 [Example 420, 4-(1,3-dimethyl-1H-pyrazol-5-yl)-N-(5-methoxy-1,3,4-thiadiazol-2-yl)-6-methylpyridine-3-carboxamide]",1000 to 10000
4,"CCOc1cc(C(=O)Nc2nnc(OC)s2)c(-c2cc(Cl)ncc2OC)cn1 [Example 276, 2′-chloro-6-ethoxy-5′-methoxy-N-(5-methoxy-1,3,4-thiadiazol-2-yl)-[3,4′-bipyridine]-4-carboxamide]",≤ 200
5,"COc1ccc(OC)c(-c2cc(C)ncc2C(=O)Nc2nnc(OC)s2)c1 [Example 486, 4-(2,5-dimethoxyphenyl)-N-(5-methoxy-1,3,4-thiadiazol-2-yl)-6-methylnicotinamide]",500 to 1000
6,"COc1cnc(Cl)cc1-c1cc(C)ncc1C(=O)Nc1nnc(O[C@@H]2C[C@H](F)CN(C(C)C)C2)s1 (single isomer, unassigned) [Example 283]",200 to 500
7,"COc1nnc(NC(=O)c2cnc(C)cc2-c2ccc3c(c2)COC3=O)s1 [Example 416, N-(5-methoxy-1,3,4-thiadiazol-2-yl)-6-methyl-4-(1-oxo-1,3-dihydro-2-benzofuran-5-yl)pyridine-3-carboxamide]",1000 to 10000
8,"COc1nnc(NC(=O)c2cnc(C)cc2-c2cnc(N)c(C#N)c2)s1 [Example 362, 6-amino-5-cyano-N-(5-methoxy-1,3,4-thiadiazol-2-yl)-6′-methyl-[3,4′-bipyridine]-3′-carboxamide]",1000 to 10000
9,"COc1nnc(NC(=O)c2cnc(C)cc2-c2cc(F)cnc2OC)s1 [Example 431, 5-fluoro-2-methoxy-N-(5-methoxy-1,3,4-thiadiazol-2-yl)-6′-methyl-[3,4′-bipyridine]-3′-carboxamide]",500 to 1000
10,"COc1cnc(Cl)cc1-c1cc(C)ncc1C(=O)Nc1nnc(OC2CCN(CC(F)(F)F)CC2)s1 [Example 278, 2′-chloro-5′-methoxy-6-methyl-N-(5-((1-(2,2,2-trifluoroethyl)piperidin-4-yl)oxy)-1,3,4-thiadiazol-2-yl)-[4,4′-bipyridine]-3-carboxamide]",200 to 500
11,"COc1nnc(NC(=O)c2cnc(C)cc2-c2cnn(-c3ccccc3)c2)s1 [Example 460, N-(5-methoxy-1,3,4-thiadiazol-2-yl)-6-methyl-4-(1-phenyl-1H-pyrazol-4-yl)nicotinamide]",1000 to 10000
12,"COc1nnc(NC(=O)c2cnc(C)cc2-c2cccc(CN(C)C)c2)s1 [Example 410, 4-(3-((dimethylamino)methyl)phenyl)-N-(5-methoxy-1,3,4-thiadiazol-2-yl)-6 methylnicotinamide]",1000 to 10000
13,"COc1nnc(NC(=O)c2cnc(C)cc2-c2cccc(NS(C)(=O)=O)c2)s1 [Example 400, 4-(3-methanesulfonamidophenyl)-N-(5-methoxy-1,3,4-thiadiazol-2-yl)-6-methylpyridine-3-carboxamide]",1000 to 10000
14,"COc1nnc(NC(=O)c2cnc(C)cc2-c2coc3ccccc23)s1 [Example 436, 4-(1-benzofuran-3-yl)-N-(5-methoxy-1,3,4-thiadiazol-2-yl)-6-methylpyridine-3-carboxamide]",1000 to 10000
15,"COc1nnc(NC(=O)c2cnc(C)cc2-c2cc(C3CC3)nn2C2CCCCO2)s1 (stereo not shown) [Example 350, 4-(3-cyclopropyl-1-(tetrahydro-2H-pyran-2-yl)-1H-pyrazol-5-yl)-N-(5-methoxy-1,3,4-thiadiazol-2-yl)-6-methylnicotinamide]",1000 to 10000
16,"COc1nnc(NC(=O)c2cnc(C)cc2-c2cc(C)cc(C)c2)s1 [Example 358, 4-(3,5-dimethylphenyl)-N-(5-methoxy-1,3,4-thiadiazol-2-yl)-6-methylpyridine-3-carboxamide]",500 to 1000
17,"COc1cnc(Cl)cc1-c1cc(C)ncc1C(=O)Nc1nnc(O[C@H]2CCCN(C3CCOC3)C2)s1 (stereo in doubt) [Example 310, 2′-chloro-5′-methoxy-6-methyl-N-(5-(((S)-1-((S)-tetrahydrofuran-3-yl)piperidin-3-yl)oxy)-1,3,4-thiadiazol-2-yl)-[4,4′-bipyridine]-3-carboxamide]",≤ 200
18,"COc1nnc(NC(=O)c2cnc(C)cc2-c2ccc(OC(F)(F)F)cc2)s1 [Example 376, N-(5-methoxy-1,3,4-thiadiazol-2-yl)-6-methyl-4-[4-(trifluoromethoxy)phenyl]pyridine-3-carboxamide]",1000 to 10000
19,"COc1nnc(NC(=O)c2cnc(C)cc2-c2cccc(S(=O)(=O)N(C)C)c2)s1 [Example 396, 4-[3-(dimethylsulfamoyl)phenyl]-N-(5-methoxy-1,3,4-thiadiazol-2-yl)-6-methylpyridine-3-carboxamide]",1000 to 10000
20,"COc1nnc(NC(=O)c2cnc(C)cc2-c2cccc(OCC#N)c2)s1 [Example 466, 4-[3-(cyanomethoxy)phenyl]-N-(5-methoxy-1,3,4-thiadiazol-2-yl)-6-methylpyridine-3-carboxamide]",1000 to 10000
21,"COc1nnc(NC(=O)c2cnc(C)cc2-c2ccc(-c3ccccc3)cc2)s1 [Example 370, 4-{[1,1′-biphenyl]-4-yl}-N-(5-methoxy-1,3,4-thiadiazol-2-yl)-6-methylpyridine-3-carboxamide]",1000 to 10000

# Same assay, conditions: Table 4; Pol theta (1-899) 5 nM, ATP, dT50 ssDNA
row,Compound,IC50 [nM]
1,"COc1cnc(Cl)cc1-c1cc(C)ncc1C(=O)Nc1nnc(OC2CCCCC2)s1 [Example 12, 2′-chloro-N-(5-(cyclohexyloxy)-1,3,4-thiadiazol-2-yl)-5′-methoxy-6-methyl-(4,4′-bipyridine)-3-carboxamide]",≤ 200
2,"Cc1cc(-c2cc(Cl)ncc2OC(F)F)c(C(=O)Nc2nnc(OC3COC3)s2)cn1 [Example 62, 2′-chloro-5′-(difluoromethoxy)-6-methyl-N-(5-(oxetan-3-yloxy)-1,3,4-thiadiazol-2-yl)-(4,4′-bipyridine)-3-carboxamide]",≤ 200
3,"CCOc1nnc(NC(=O)c2cnc(C)cc2-c2cc(Cl)ncc2OC)s1 [Example 28, 2′-chloro-N-(5-ethoxy-1,3,4-thiadiazol-2-yl)-5′-methoxy-6-methyl-(4,4′-bipyridine)-3-carboxamide]",≤ 200
4,"COc1cnc(Cl)cc1-c1cc(C)ncc1C(=O)Nc1nnc(O[C@H]2CC[C@H](O)CC2)s1 (single isomer, unassigned) [Example 27, 2′-chloro-N-(5-(((1r,4r)-4-hydroxycyclohexyl)oxy)-1,3,4-thiadiazol-2-yl)-5′-methoxy-6-methyl-[4,4′-bipyridine]-3-carboxamide]",≤ 200
5,"C#CCOc1nnc(NC(=O)c2ccncc2-c2ccccc2OC)s1 [Example 1, 3-(2-methoxyphenyl)-N-(5-(prop-2-yn-1-yloxy)-1,3,4-thiadiazol-2-yl)isonicotinamide]",≤ 200
6,"COc1nnc(NC(=O)c2cnc(C)cc2-c2ccccc2OC(F)F)s1 [Example 36, 4-(2-(difluoromethoxy)phenyl)-N-(5-methoxy-1,3,4-thiadiazol-2-yl)-6-methylnicotinamide]",≤ 200

# Same assay, conditions: Table 5; Pol theta (1-899) 5 nM, ATP, dT50 ssDNA
row,Compound,IC50 [nM]
1,"COc1cnc(Cl)cc1-c1cc(C)ncc1C(=O)Nc1nnc(O[C@H]2CCC[C@@H](OC)C2)s1 (single isomer, unassigned) [Example 145]",≤ 200
2,"COc1cnc(Cl)c(F)c1-c1cc(C)ncc1C(=O)Nc1nnc(O[C@@H]2CC[C@@H](O)C2)s1 (single isomer, unassigned) [Example 198]",≤ 200
3,"COc1cnc(Cl)cc1-c1cc(C)ncc1C(=O)Nc1nnc(O[C@@H]2COCC2(F)F)s1 (single isomer, unassigned) [Example 127]",≤ 200
4,"COc1nnc(NC(=O)c2cnc(C)cc2-c2c(OC)cnc(Cl)c2C)s1 [Example 79, 2′-chloro-5′-methoxy-N-(5-methoxy-1,3,4-thiadiazol-2-yl)-3′,6-dimethyl-(4,4′-bipyridine)-3-carboxamide]",200 to 500
5,"COc1cnc(Cl)cc1-c1cc(C)ncc1C(=O)Nc1nnc(O[C@H]2CCC[C@H](OC)C2)s1 (single isomer, unassigned) [Example 147]",≤ 200
6,"COc1cnc(Cl)cc1-c1cc(C)ncc1C(=O)Nc1nnc(O[C@@H]2CC[C@H]2O)s1 (single isomer, unassigned) [Example 114]",≤ 200
7,"COc1cnc(Cl)c(F)c1-c1cc(C)ncc1C(=O)Nc1nnc(O[C@@H]2CCOC2)s1 [Example 80, 2′-chloro-3′-fluoro-5′-methoxy-6-methyl-N-(5-(((R)-tetrahydrofuran-3-yl)oxy)-1,3,4-thiadiazol-2-yl)-(4,4′-bipyridine)-3-carboxamide]",≤ 200
8,"Cc1cc(-c2cc(Br)ncc2OC(F)F)c(C(=O)Nc2nnc(O[C@H]3CC[C@H](O)CC3)s2)cn1 [Example 205, 2′-bromo-5′-(difluoromethoxy)-N-(5-(((1r,4r)-4-hydroxycyclohexyl)oxy)-1,3,4-thiadiazol-2-yl)-6-methyl-(4,4′-bipyridine)-3-carboxamide]",≤ 200
9,"COc1nnc(NC(=O)c2cnc(C)cc2-c2cc(Cl)c([S+](C)[O-])cc2OC)s1 (stereo not shown) [Example 231, 4-(5-chloro-2-methoxy-4-(methylsulfinyl)phenyl)-N-(5-methoxy-1,3,4-thiadiazol-2-yl)-6-methylnicotinamide]",≤ 200
10,COc1cnc(C)c(F)c1-c1cc(C)ncc1C(=O)Nc1nnc(OC2COC2)s1 [Example 204],≤ 200
